In patent US8609682B2 (priority 2008, dated 2013):

Key:
[1] = molecular target: mu/delta opioid receptors (Mus musculus, UniProt P32300+P42866); details: Mu/delta cells
[2] = molecular target: kappa/delta opioid receptors (Mus musculus, UniProt P32300+P33534)
delta opioid receptor = delta opioid receptor (Mus musculus, UniProt P32300); details: Delta cells
mice [3] = assay: Radiant heat tail flick antinociception; assay type: in vivo, mouse
mice [4] = details: chronic i.c.v. morphine; cited from earlier work
mice [5] = details: i.c.v. morphine-infused mice; cited from earlier work
mice [6] = assay: Conditioned place preference (CPP)
mu opioid receptor = molecular target: T1, mu opioid receptor (Mus musculus, UniProt P42866); assay: Ca2+ release, HEK-293 mu cells; assay type: cell-based, murine
T1 construct: expressed in transfected cells

[7] = molecular target: T2, mu/kappa opioid heterodimers (Mus musculus, UniProt P33534+P42866); assay type: cell-based, murine
T2 construct: expressed in transfected cells
T2 sequence (P42866 whole entry): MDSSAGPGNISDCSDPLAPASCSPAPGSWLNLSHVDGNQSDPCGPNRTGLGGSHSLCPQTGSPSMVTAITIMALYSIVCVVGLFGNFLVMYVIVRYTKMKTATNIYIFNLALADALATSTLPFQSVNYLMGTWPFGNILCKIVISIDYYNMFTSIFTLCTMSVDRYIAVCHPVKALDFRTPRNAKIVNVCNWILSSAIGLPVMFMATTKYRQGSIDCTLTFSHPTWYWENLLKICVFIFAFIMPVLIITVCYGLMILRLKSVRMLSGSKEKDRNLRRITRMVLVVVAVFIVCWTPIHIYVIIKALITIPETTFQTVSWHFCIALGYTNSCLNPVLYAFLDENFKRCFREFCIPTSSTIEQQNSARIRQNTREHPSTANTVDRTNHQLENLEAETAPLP
T2 sequence (P33534 whole entry): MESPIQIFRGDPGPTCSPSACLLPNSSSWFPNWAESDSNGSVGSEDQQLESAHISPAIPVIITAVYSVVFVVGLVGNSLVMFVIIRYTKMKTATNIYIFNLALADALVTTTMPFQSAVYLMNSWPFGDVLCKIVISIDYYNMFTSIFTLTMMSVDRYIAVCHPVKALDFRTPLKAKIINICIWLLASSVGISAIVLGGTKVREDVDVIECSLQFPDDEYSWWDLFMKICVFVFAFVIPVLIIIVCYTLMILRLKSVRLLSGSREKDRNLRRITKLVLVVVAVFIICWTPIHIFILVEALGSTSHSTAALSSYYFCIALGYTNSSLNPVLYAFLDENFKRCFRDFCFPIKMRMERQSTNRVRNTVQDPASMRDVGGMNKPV

Chain of mu/delta opioid receptors (P32300 whole entry): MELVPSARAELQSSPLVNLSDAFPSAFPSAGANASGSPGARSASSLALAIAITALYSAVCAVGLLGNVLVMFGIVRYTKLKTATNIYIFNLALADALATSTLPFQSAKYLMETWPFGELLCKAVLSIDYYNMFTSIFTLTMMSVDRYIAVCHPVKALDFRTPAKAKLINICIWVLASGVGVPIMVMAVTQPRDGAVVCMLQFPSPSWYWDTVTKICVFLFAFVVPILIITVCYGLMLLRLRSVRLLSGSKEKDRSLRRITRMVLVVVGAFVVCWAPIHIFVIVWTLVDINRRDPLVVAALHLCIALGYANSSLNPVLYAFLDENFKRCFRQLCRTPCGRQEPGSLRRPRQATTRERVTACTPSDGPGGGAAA
Chain of mu/delta opioid receptors (P42866 whole entry): as the sequence (P42866 whole entry) above
Chain of delta opioid receptor (P32300 whole entry): as the sequence (P32300 whole entry) above
Chain of kappa/delta opioid receptors (P33534 whole entry): as the sequence (P33534 whole entry) above
Chain of kappa/delta opioid receptors (P32300 whole entry): as the sequence (P32300 whole entry) above
T1 sequence (P42866 whole entry): as the sequence (P42866 whole entry) above

Molecule: DPDPE
- AUCpeak (RFU X seconds), Ca2+ release [1]: 10504 ± 969 RFU X seconds
- AUCpeak (RFU X seconds), Ca2+ release [2]: 10153 ± 1479
- AUCpeak (RFU X seconds), Ca2+ release (delta opioid receptor): 8319 ± 1117 RFU X seconds

Molecule: Cys2-Tyr3-Orn5-Pen7-amide [CTOP, reference compound]
- peak time of antagonist effect (mice [3]): 20 min

Molecule: CN1CC[C@]23c4c5ccc(O)c4O[C@H]2[C@@H](O)C=C[C@H]3[C@H]1C5 [morphine, reference compound]
- development of tolerance, previous studies, same protocol (mice [4]): 6 fold
- naloxone-induced withdrawal jumping, previous studies (mice [5]): 100 jumps in 10 min
- place preference (mice [6]; 1200 nmol/kg): strong place preference
- place preference with naloxone (mice [6]; morphine 1200 nmol/kg plus naloxone 300 nmol/kg): can be blocked by naloxone
- time of peak antinociception (mice [3]; i.v., preliminary studies, ICR mice): 15 min
- ED50 (95% CI) (mice [3]; i.v., tail flick): 420 (378-469) nmol

Molecule: Oc1ccc2c3c1O[C@H]1c4[nH]c5c(c4C[C@@]4(O)[C@@H](C2)N(CC2CC2)CC[C@]314)C[C@@]1(O)[C@H]2Cc3ccc(O)c4c3[C@@]1(CCN2CC1CC1)[C@H]5O4 [norBNI, norbinaltorphimine, reference compound]
- peak time of antagonist effect (mice [3]): 20 min

Molecule: C[C@@H](NC(=O)[C@@H](N)Cc1ccc(O)cc1)C(=O)NCC(=O)N(C)[C@@H](Cc1ccccc1)C(=O)NCCO [DAMGO, reference compound]
- AUCpeak (RFU X seconds), Ca2+ release (mu opioid receptor): 9989 ± 702 RFU X seconds
- AUCpeak (RFU X seconds), Ca2+ release [1]: 12054 ± 1281 RFU X seconds
- AUCpeak (RFU X seconds), Ca2+ release [7]: 5562 ± 668

Molecule: Oc1ccc2c3c1O[C@H]1c4[nH]c5ccccc5c4C[C@@]4(O)[C@@H](C2)N(CC2CC2)CC[C@]314 [NTI, naltrindole, reference compound]
- peak time of antagonist effect (mice [3]): 20 min
